This test concerns BRSNS. Nature of the test: Drought stress test on crop plants, spray application, visual damage rating (BRSNS). The class given is in vivo, Brassica napus. Particulars: dosage 250 g/ha, mean of three results. How it is done:
Seeds of monocotyledonous and dicotyledonous crop plants were laid out in sandy loam in wood-fiber pots, covered with soil and cultivated in a greenhouse under good growth conditions. The test plants were treated at the early leaf stage (BBCH10-BBCH13). To ensure uniform water supply before commencement of stress, the potted plants were supplied with the maximum amount of water immediately beforehand by dam irrigation and, after application, transferred into plastic inserts in order to prevent subsequent, excessively rapid drying. The compounds according to the invention, formulated in the form of wettable powders (WP), wettable granules (WG), suspension concentrates (SC) or emulsion concentrates (EC), were sprayed onto the green parts of the plants as an aqueous suspension at an equivalent water application rate of 600 I/ha with addition of 0.2% wetting agent (agrotin). Substance application is followed immediately by stress treatment of the plants (cold or drought stress). […]
After the recovery phase had ended, the intensities of damage were rated visually in comparison to untreated, unstressed controls of the same age (in the case of drought stress) or the same growth stage (in the case of cold stress). The intensity of damage was first recorded as a percentage (100%=plants have died, 0%=like control plants). […]

A value given as a limit tells only on which side of the number the result lay.

As to `CCCn1cc(-c2cn(-c3ccc(F)cc3)nc2C(=O)OCC)cn1` [1-878, Ethyl 1-(4-fluorophenyl)-1-propyl-1H, 1′H-4,4′-bipyrazole-3-carboxylate], the “EF (BRSNS), efficacy = percentage reduction in the intensity of damage” value is reported as >5%.

The values are drawn from patent US9226505B2, “4-substituted 1-phenylpyrazole-3-carboxylic acid derivatives as agents against abiotic plant stress” (BAYER INTELLECTUAL PROPERTY GMBH, priority 2011, dated 2016).
